Reference: patent publication EP4603105A1, “PHARMACEUTICAL COMPOSITION CONTAINING CYCLIC COMPOUND HAVING SELECTIVE KRAS INHIBITORY EFFECT AGAINST HRAS AND NRAS” (CHUGAI SEIYAKU KABUSHIKI KAISHA, priority 2022, dated 2024)
Like-named read-outs stand apart in the source and are kept apart here.

Assays:
[1] = biological target: HRAS wild-type protein (Homo sapiens, UniProt P01112); assay: Binding to HRAS by surface plasmon resonance (SPR), KD and KD ratio to KRAS
In short: (§1)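 GDP-bound biotin-Avi RAS captured at ~100–300 RU, 30°C, pH 7.4 HBS containing 10 µM GDP, 10 mM MgCl2, 1 mM DTT, 0.01% Tween 20 and 4% DMSO. KD by 1:1 fitting.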

[2] = biological target: GDP-bound KRAS wild-type protein (Homo sapiens, UniProt P01116); assay: Binding to KRAS by surface plasmon resonance (SPR), dissociation constant KD
In short: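 Single-cycle kinetics on GDP-loaded biotin-Avi RAS captured to ~100–300 RU; 75 s ascending injections, 100 µL/min, 30°C. HBS pH 7.4 + 10 mM MgCl2/10 µM GDP/4% DMSO. 1:1 fit, KD.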

[3] = tested on: human lung cancer strain NCI-H441; assay: NCI-H441 cell proliferation inhibitory activity (CellTiter-Glo, 4 days); type: cell-based; conditions: read-out: NCl-H441 IC50
In short: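 Readout: […] after the ATP-based reagent. Compound: serial dilutions in dimethyl sulfoxide.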

[4] = biological target: GDP-bound NRAS wild-type protein (Homo sapiens, UniProt P01111); assay: Binding to NRAS by surface plasmon resonance (SPR), KD and KD ratio to KRAS
In short: as §1

[5] = ratio of KD for HRAS wild-type protein to KD for KRAS
[6] = ratio of KD for GDP-bound NRAS wild-type protein to KD for KRAS
[7] = ratio of KD with respect to HRAS wild-type protein to KD with respect to KRAS
[8] = Single Cycle Kinetics, 1:1 binding model
[9] = 50% proliferation inhibitory concentration, four days
[10] = ratio of KD with respect to GDP-bound NRAS wild-type protein to KD with respect to KRAS

Sequence of GDP-bound KRAS wild-type protein (P01116 1-188 isoform P01116-2): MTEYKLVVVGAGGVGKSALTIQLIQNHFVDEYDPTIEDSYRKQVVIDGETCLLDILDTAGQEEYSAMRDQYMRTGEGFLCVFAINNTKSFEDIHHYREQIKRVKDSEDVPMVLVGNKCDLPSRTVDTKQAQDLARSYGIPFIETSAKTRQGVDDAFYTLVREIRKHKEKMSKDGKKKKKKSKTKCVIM
Sequence of HRAS wild-type protein (P01112 whole entry): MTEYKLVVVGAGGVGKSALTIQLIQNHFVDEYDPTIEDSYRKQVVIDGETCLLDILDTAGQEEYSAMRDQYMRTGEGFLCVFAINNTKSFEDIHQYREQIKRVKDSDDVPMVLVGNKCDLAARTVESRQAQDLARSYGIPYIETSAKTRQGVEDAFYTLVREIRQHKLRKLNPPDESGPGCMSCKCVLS
Sequence of GDP-bound NRAS wild-type protein (P01111 whole entry): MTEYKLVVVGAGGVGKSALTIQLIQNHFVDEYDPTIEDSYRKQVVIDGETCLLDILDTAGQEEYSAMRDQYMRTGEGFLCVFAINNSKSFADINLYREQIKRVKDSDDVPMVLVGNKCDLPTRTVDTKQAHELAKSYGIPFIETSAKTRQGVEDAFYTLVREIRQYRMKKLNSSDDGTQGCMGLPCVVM

Row | Compound | Kd ([2]; Single Cycle Kinetics) | IC50 ([3]; NCI-H441 cells, 4 days) | Kd ([2]; 1:1 binding model) | Kd [2, 8] | IC50 [3, 9] | HRAS /KRAS [1, 5] | NRAS /KRAS [4, 6] | HRAS /KRAS [1, 7] | NRAS /KRAS [4, 10]
1 | CCO[C@@H]1C[C@H]2C(=O)NC3(CCC3)C(=O)N(C)[C@@H](C3CCCC3)C(=O)N(C)[C@H](C(=O)N(C)C)CC(=O)N(C)[C@@H](CC3CC3)C(=O)N[C@@H]([C@@H](C)CC)C(=O)N(C)CC(=O)N(C)[C@H]3C/C=C\CCN(C3=O)[C@@H](Cc3ccc(C)cc3)C(=O)N(C)CC(=O)N[C@@H](CCc3ccc(Cl)c(Cl)c3)C(=O)N2C1 [PP1485] |  |  |  | 0.28 nM | 30.5 nM |  |  | A (a compound having 10 or more and less than 20 is denoted as A) | A (a compound having 10 or more and less than 20 is denoted as A)
2 | CCCOC[C@H]1C(=O)N[C@@H]([C@@H](C)CC)C(=O)N(C2CC2)CC(=O)N(C)[C@H]2C/C=C\CCN(C2=O)[C@@H](CC2CCC(F)(F)CC2)C(=O)N(C)CC(=O)N[C@@H](CCc2ccc(C(F)(F)F)c(OC)c2)C(=O)N2C[C@@H](C)C[C@H]2C(=O)N(C)C2(CCC2)C(=O)N(C)[C@@H](C2CCCC2)C(=O)N(C)[C@H](C(=O)N(C)C)CC(=O)N1C [PP2379] |  | 2.2 nM | 0.76 nM |  |  | A (a compound having 10 or more and less than 20 is denoted as A) | A (a compound having 10 or more and less than 20 is denoted as A) |  | 
3 | CCCCCC[C@H]1C(=O)N[C@@H]([C@@H](C)CC)C(=O)N(C)CC(=O)N(C)[C@H]2C/C=C\CCN(C2=O)[C@@H](Cc2ccc(C(F)(F)F)cc2)C(=O)N(C)CC(=O)N[C@@H](CCc2ccc3sccc3c2)C(=O)N2C[C@H](OCC)C[C@H]2C(=O)NC2(CCC2)C(=O)N(C)[C@@H](C2CCCC2)C(=O)N(C)[C@H](C(=O)N(C)C)CC(=O)N1C [PP1259] |  |  |  | 0.49 nM | 62 nM |  |  | A (a compound having 10 or more and less than 20 is denoted as A) | A (a compound having 10 or more and less than 20 is denoted as A)
4 | CCCO[C@H](C)[C@@H]1NC(=O)[C@H](COCC)N(C)C(=O)C[C@@H](C(=O)N(C)CC)N(C)C(=O)[C@H](C2CCCC2)N(C)C(=O)C2(CC(C)(C)C2)NC(=O)[C@@H]2C[C@@H](OCC)CN2C(=O)[C@H](CCc2cc(F)c(C(F)(F)F)c(F)c2)NC(=O)CN(C)C(=O)[C@H](Cc2ccc(C)cc2)N2CC/C=C\C[C@@H](C2=O)N(C)C(=O)[C@@H]2CCCN2C1=O [PP2436] |  | 126 nM | 1.6 nM |  |  | A (a compound having 10 or more and less than 20 is denoted as A) | A (a compound having 10 or more and less than 20 is denoted as A) |  | 
5 | CCO[C@@H]1C[C@H]2C(=O)NC3(CCC3)C(=O)N(C)[C@@H](C3CCCC3)C(=O)N(C)[C@H](C(=O)N(C)C)CC(=O)N(C)[C@@H](CC3CCCC3)C(=O)N[C@@H]([C@@H](C)CC)C(=O)N(C)CC(=O)N(C)[C@H]3C/C=C\CCN(C3=O)[C@@H](Cc3ccc(C(F)(F)F)cc3)C(=O)N(C)CC(=O)N[C@@H](CCc3ccc4sccc4c3)C(=O)N2C1 [PP1261] |  |  |  | 0.44 nM | 76.8 nM |  |  | A (a compound having 10 or more and less than 20 is denoted as A) | A (a compound having 10 or more and less than 20 is denoted as A)
6 | CCC[C@H]1C(=O)N[C@@H]([C@@H](C)CC)C(=O)N(C2CC2)CC(=O)N(C)[C@H]2C/C=C\CCN(C2=O)[C@@H](CC2CCCCC2)C(=O)N(C)CC(=O)N[C@@H](CCc2ccc(C(F)(F)F)c(OC)c2)C(=O)N2C[C@@H](C)C[C@H]2C(=O)N(C)C2(CCC2)C(=O)N(C)[C@@H](C2CCCC2)C(=O)N(C)[C@H](C(=O)N(C)C)CC(=O)N1C [PP2372] |  | 3.3 nM | 0.79 nM |  |  | B (a compound having 3 or more and less than 10 is denoted as B) | A (a compound having 10 or more and less than 20 is denoted as A) |  | 

Continued, in another order:

Row | Kd ([2]; Single Cycle Kinetics) | IC50 ([3]; NCI-H441 cells, 4 days) | Kd ([2]; 1:1 binding model) | Kd [2, 8] | IC50 [3, 9] | Compound | HRAS /KRAS [1, 5] | NRAS /KRAS [4, 6] | HRAS /KRAS [1, 7] | NRAS /KRAS [4, 10]
7 | 0.96 nM | 19.4 nM |  |  |  | CCC[C@H]1C(=O)N[C@@H]([C@@H](C)CC)C(=O)N2CCCC[C@H]2C(=O)N(C)[C@H]2C/C=C\CCN(C2=O)[C@@H](Cc2ccc(C(F)(F)F)cc2)C(=O)N(C)CC(=O)N[C@@H](CCc2ccc(C(F)(F)F)c(Cl)c2)C(=O)N2C[C@H](OCC)C[C@H]2C(=O)N(C)C2(CCC2)C(=O)N(C)[C@@H](C2CCCC2)C(=O)N(C)[C@H](C(=O)N(C)C)CC(=O)N1C [PP3272] | B (a compound having 3 or more and less than 10 is denoted as B) | A (a compound having 10 or more and less than 20 is denoted as A) |  | 
8 |  | 7.1 nM | 0.2 nM |  |  | CCO[C@@H]1C[C@H]2C(=O)NC3(CC(C)(C)C3)C(=O)N(C)[C@@H](CC(C)(C)C)C(=O)N(C)[C@H](C(=O)N(C)C)CC(=O)N(C)[C@@H](COC)C(=O)N[C@@H]([C@@H](C)CC)C(=O)N(C3CC3)CC(=O)N(C)[C@H]3C/C=C\CCN(C3=O)[C@@H](Cc3ccc(C(F)(F)F)cc3)C(=O)N(C)CC(=O)N[C@@H](CCc3ccc(C(F)(F)F)c(OC)c3)C(=O)N2C1 [PP2748] | A (a compound having 10 or more and less than 20 is denoted as A) | A (a compound having 10 or more and less than 20 is denoted as A) |  | 
9 | 0.2 nM | 8.3 nM |  |  |  | CCC[C@H]1C(=O)N[C@@H]([C@@H](C)CC)C(=O)N(C2CC2)CC(=O)N(C)[C@H]2C/C=C\CCN(C2=O)[C@@H](Cc2ccc(C(F)(F)F)cc2)C(=O)N(C)CC(=O)N[C@@H](CCc2cc(F)c(C(F)(F)F)c(F)c2)C(=O)N2CC[C@H](OC)[C@H]2C(=O)N(C)C2(CCC2)C(=O)N(C)[C@@H](C2CCCC2)C(=O)N(C)[C@H](C(=O)N(C)C)CC(=O)N1C [PP3282] | A (a compound having 10 or more and less than 20 is denoted as A) | A (a compound having 10 or more and less than 20 is denoted as A) |  | 
10 | 0.23 nM | 6.5 nM |  |  |  | CCC[C@H]1C(=O)N[C@@H]([C@@H](C)CC)C(=O)N(C2CC2)CC(=O)N(C)[C@H]2C/C=C\CCN(C2=O)[C@@H](Cc2ccc(C(F)(F)F)cc2)C(=O)N(C)CC(=O)N[C@@H](CCc2ccc(C(F)(F)F)c(OC)c2)C(=O)N2CC[C@H](OC)[C@H]2C(=O)N(C)C2(CCC2)C(=O)N(C)[C@@H](C2CCCC2)C(=O)N(C)[C@H](C(=O)N(C)C)CC(=O)N1C [PP3239] | A (a compound having 10 or more and less than 20 is denoted as A) | A (a compound having 10 or more and less than 20 is denoted as A) |  | 
11 | 0.18 nM | 8.5 nM |  |  |  | CCCC[C@H]1C(=O)N[C@@H]([C@@H](C)CC)C(=O)N(C)CC(=O)N(C)[C@H]2C/C=C\CCN(C2=O)[C@@H](Cc2ccc(C(F)(F)F)cc2)C(=O)N(C)CC(=O)N[C@@H](CCc2ccc(C(F)(F)F)c(OC)c2)C(=O)N2C[C@H](OCC)C[C@H]2C(=O)OC2(CCC2)C(=O)N(C)[C@@H](C2CCCC2)C(=O)N(C)[C@H](C(=O)N(C)C)CC(=O)N1C [PP3367] | A (a compound having 10 or more and less than 20 is denoted as A) | A (a compound having 10 or more and less than 20 is denoted as A) |  | 
12 |  | 8.9 nM | 0.061 nM |  |  | CCO[C@@H]1C[C@H]2C(=O)NC3(CC(C)(C)C3)C(=O)N(C)[C@@H](C3CCCC3)C(=O)N(C)[C@H](C(=O)N(C)CC)CC(=O)N(C)[C@@H](COC)C(=O)N[C@@H]([C@@H](C)CC)C(=O)N(C)CC(=O)N(C)[C@H]3C/C=C\CCN(C3=O)[C@@H](Cc3ccc(C)cc3)C(=O)N(C)CC(=O)N[C@@H](CCc3ccc(C(F)(F)F)c(Cl)c3)C(=O)N2C1 [PP2507] | A (a compound having 10 or more and less than 20 is denoted as A) | AA (a compound having 20 or more is denoted as AA) |  | 
13 | 1.5 nM | 40.5 nM |  |  |  | CCCO[C@@H]1C[C@H]2C(=O)NC3(CC(C)(C)C3)C(=O)N(C)[C@@H](C3CCCC3)C(=O)N(C)[C@H](C(=O)N(C)CC)CC(=O)N(C)[C@@H](COCC)C(=O)N[C@@H]([C@@H](C)CC)C(=O)N3CCC[C@H]3C(=O)N(C)[C@H]3C/C=C\CCN(C3=O)[C@@H](Cc3ccc(C(F)(F)F)cc3)C(=O)N(C)CC(=O)N[C@@H](CCc3ccc(C(F)(F)F)c(Cl)c3)C(=O)N2C1 [PP3405] | A (a compound having 10 or more and less than 20 is denoted as A) | A (a compound having 10 or more and less than 20 is denoted as A) |  | 
14 |  | 9.4 nM | 0.21 nM |  |  | CCC[C@H]1C(=O)N[C@@H]([C@@H](C)CC)C(=O)N2C[C@@H](OC)C[C@H]2C(=O)N(C)[C@H]2C/C=C\CCN(C2=O)[C@@H](Cc2ccc(C)cc2)C(=O)N(C)CC(=O)N[C@@H](CCc2cc(F)c(C(F)(F)F)c(F)c2)C(=O)N2C[C@H](OCC)C[C@H]2C(=O)NC2(CC(C)(C)C2)C(=O)N(C)[C@@H](C2CCCC2)C(=O)N(C)[C@H](C(=O)N(C)C)CC(=O)N1C [PP2556] | B (a compound having 3 or more and less than 10 is denoted as B) | A (a compound having 10 or more and less than 20 is denoted as A) |  | 
15 | 0.18 nM | 17.2 nM |  |  |  | CCC[C@H]1C(=O)N[C@@H](C2CCCC2)C(=O)N(C)CC(=O)N(C)[C@H]2C/C=C\CCN(C2=O)[C@@H](Cc2ccc(C)cc2)C(=O)N(C)CC(=O)N[C@@H](CCc2cc(F)c(C(F)(F)F)c(F)c2)C(=O)N2CC3(CC3)C[C@H]2C(=O)N(C)C2(CCC2)C(=O)N(C)[C@@H](C(CC)CC)C(=O)N(C)[C@H](C(=O)N(C)C)CC(=O)N1C [PP3308] | B (a compound having 3 or more and less than 10 is denoted as B) | A (a compound having 10 or more and less than 20 is denoted as A) |  | 
